Source: paper PMC7447640, “Synthesis, antioxidant properties and neuroprotection of α-phenyl-tert-butylnitrone derived HomoBisNitrones in in vitro and in vivo ischemia models” (Scientific Reports, 2020)

Biological target: T1, soybean lipoxygenase (LOX) (Glycine max, UniProt P08170)
T1 construct: gene LOX1.1
T1 sequence (P08170 1-839): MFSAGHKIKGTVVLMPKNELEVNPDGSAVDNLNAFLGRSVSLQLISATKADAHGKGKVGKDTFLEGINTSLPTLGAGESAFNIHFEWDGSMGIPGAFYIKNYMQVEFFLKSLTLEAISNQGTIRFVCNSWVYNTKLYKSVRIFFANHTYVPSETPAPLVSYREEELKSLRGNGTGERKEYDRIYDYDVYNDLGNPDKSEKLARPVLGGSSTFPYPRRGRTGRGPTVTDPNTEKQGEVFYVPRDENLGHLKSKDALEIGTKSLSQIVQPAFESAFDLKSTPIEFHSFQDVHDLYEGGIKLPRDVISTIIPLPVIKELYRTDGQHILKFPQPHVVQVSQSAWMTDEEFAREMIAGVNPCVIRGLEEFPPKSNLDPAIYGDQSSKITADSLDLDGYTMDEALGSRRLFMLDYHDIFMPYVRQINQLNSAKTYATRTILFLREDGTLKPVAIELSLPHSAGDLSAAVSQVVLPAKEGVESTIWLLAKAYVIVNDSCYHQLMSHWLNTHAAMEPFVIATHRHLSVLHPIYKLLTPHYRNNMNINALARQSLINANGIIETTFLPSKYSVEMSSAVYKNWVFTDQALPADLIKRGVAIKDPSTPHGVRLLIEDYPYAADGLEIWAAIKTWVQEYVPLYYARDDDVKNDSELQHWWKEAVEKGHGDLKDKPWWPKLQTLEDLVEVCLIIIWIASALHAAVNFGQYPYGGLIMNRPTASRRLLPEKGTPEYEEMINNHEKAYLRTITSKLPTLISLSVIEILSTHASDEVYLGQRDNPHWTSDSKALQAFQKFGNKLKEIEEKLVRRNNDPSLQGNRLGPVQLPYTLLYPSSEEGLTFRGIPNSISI
Assay: soybean lipoxygenase, linoleate oxidation at […] nm
Format: biochemical
Details: read-out: LOX inhibition (IC50 [μM]/%)

Row | Structure (SMILES) | IC50 [µM]
1 | C/[N+]([O-])=C/c1ccccc1/C=[N+](/C)[O-] [HBN7, (1Z,1′Z)-1,1′-(1,2-Phenylene)bis(N-methylmethanimineoxide)] | 60
2 | CC(C)(C)/[N+]([O-])=C/c1ccccc1/C=[N+](\[O-])C(C)(C)C [HBN8, (1Z,1′Z)-1,1′-(1,2-Phenylene)bis(N-tert-butylmethanimineoxide)] | 57.5
3 | [O-]/[N+](=C\c1ccccc1/C=[N+](\[O-])Cc1ccccc1)Cc1ccccc1 [HBN9, (1Z,1′Z)-1,1′-(1,2-Phenylene)bis(N-benzylmethanimineoxide)] | 85
